Experimental data reported in publication PMC3472544, “Glycosaminoglycan analogs as a novel anti-inflammatory strategy” (Frontiers in Immunology, 2012).
Values belong to the compound of their own block, whether it stands above or below them.

Columns and labels:
[1] = tested on: CCL5-induced cellular recruitment into the peritoneal cavity; assay: CCL5-induced peritoneal cellular recruitment; format: in vivo, mouse; settings: CCL5 binders administered 30 min prior to CCL5 (Figure 4A, B)
CCL5 = target: T1, CCL5 (Homo sapiens, UniProt P13501); assay: NMR-based CCL5 binding, Kd from 15N-HSQC titration; settings: for selective binding to CCL5 in the NMR screen: 206 compound library, 200 μM, HSQC chemical shift changes; for Kd: determined by protein NMR, pH 3.2, 30°C
T1 construct: made in house
T1 sequence (P13501 24-91): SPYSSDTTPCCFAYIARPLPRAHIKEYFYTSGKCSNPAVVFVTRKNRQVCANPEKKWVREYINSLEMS
Experimental: These molecules were charged, and contained multiple acid groups, such as carboxylates and sulfonates. In addition, many of the molecules were aromatic, to provide some hydrophobicity. The library was pooled into sets containing five compounds and these pools mixed at 200 μM, with an equal concentration of CCL5 at 30°C, and a heteronuclear single quantum coherence (HSQC) spectrum recorded immediately. For pools that induced significant change in the protein chemical shifts, a second round of screening was performed in which each of the five compounds was added individually to the protein solution. […] Dissociation constants were obtained by fitting the recorded chemical shift as a function of increasing ligand concentrations with: (1) δobs=δf+LbΔb −f in which δobs is the observed chemical shift at each point of the titration curve, δf is the chemical shift of the free protein and Δb − f is the difference in chemical shift between free and fully complexed protein.

CCR5 [2] = target: T2, CCR5 (Homo sapiens, UniProt P13501); assay: Equilibrium competition receptor binding assay (SPA), [125I]-CCL5 on CHO/CCR5 membranes; settings: SPA-based equilibrium competition binding
T2 construct: expressed in transfected cells; host or cells: CHO
T2 sequence (P13501 24-91): T1 sequence (P13501 24-91)
Experimental: Briefly, serial dilutions of the compounds were prepared in binding buffer (50 mM TrisHCl, pH 7.2, containing 1 mM CaCl2, 5 mM MgCl2, and 0.5% BSA). […] The plates were incubated for 4 h. Radioactivity was counted with a beta counter for 1 min/well and the data analyzed using Graphpad Prism software. The radioligand was stored at −20°C and was used until the cpm of bound chemokine was ≥ 300 cpm.

CCR5 [3] = target: T3, CCR5 (Homo sapiens, UniProt P51681); assay: Equilibrium competition receptor binding assay with CCL3 as the ligand, CCR5; settings: data not shown
T3 construct: expressed in transfected cells; host or cells: CHO
T3 sequence (P51681 whole entry, species assumed): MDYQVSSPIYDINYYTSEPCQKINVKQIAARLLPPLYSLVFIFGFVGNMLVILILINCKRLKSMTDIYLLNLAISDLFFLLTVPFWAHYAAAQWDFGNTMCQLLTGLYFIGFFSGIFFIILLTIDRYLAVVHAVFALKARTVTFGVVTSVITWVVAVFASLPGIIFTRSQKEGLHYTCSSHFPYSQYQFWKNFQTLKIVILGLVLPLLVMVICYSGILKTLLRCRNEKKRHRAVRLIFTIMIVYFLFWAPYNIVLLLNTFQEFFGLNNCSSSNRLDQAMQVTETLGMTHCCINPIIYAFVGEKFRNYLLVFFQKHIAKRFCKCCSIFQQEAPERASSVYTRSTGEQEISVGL
Experimental: (§1) The assays were carried out on membranes from CHO transfectants expressing CCR1 or CCR5, as described previously (Severin et al., [2010]). Briefly, serial dilutions of the compounds were prepared in binding buffer (50 mM TrisHCl, pH 7.2, containing 1 mM CaCl2, 5 mM MgCl2, and 0.5% BSA). Equal volumes of membrane preparation at 80 μg/ml and scintillation proximity assay (SPA) beads were mixed before adding them to a 96 well filter plate, giving a final membrane concentration in the assay of 20 μg/ml. ^125I labeled chemokines were dissolved in binding buffer at a concentration of 0.4 nM. […] The plates were incubated for 4 h. Radioactivity was counted with a beta counter for 1 min/well and the data analyzed using Graphpad Prism software. The radioligand was stored at −20°C and was used until the cpm of bound chemokine was ≥ 300 cpm.
(§2) A study of the relative affinity of Molecule 1 toward CCL5 and heparin molecules was first evaluated by competition experiments in which CCL5, immobilized on heparin beads, was competed off the beads by increasing concentrations of Molecule 1. […] Since the principal GAG binding motif of CCL5, the BBXB motif on the 40s loop, plays a role in binding to CCR1, we determined the capacity of Molecule 1 to inhibit the binding of the chemokine CCL5 to its receptors CCR1 and CCR5 using equilibrium competition binding with a SPA-based assay.

CCL5 binding to heparin = target: T4, CCL5 binding to heparin (Homo sapiens, UniProt P13501); assay: Immobilized heparin competition binding assay ([125I]-CCL5 on heparin-Sepharose beads); settings: [125I]-CCL5 0.05 nM, 4 h, read-out: IC50 for the inhibition of CCL5 binding to heparin
T4 sequence (P13501 24-91): T1 sequence (P13501 24-91)
Experimental: Competition experiments were performed as described elsewhere (Severin et al., [2010]). Briefly, heparin-Sepharose beads (Sepharose beads or binding buffer as a background control) and increasing amounts of antagonist were added to each well of a 96 well filter plate. [^125I]-CCL5, was added last, to reach a final concentration of 0.05 nM. The plates were incubated on a shaker at room temperature for 4 h. Each experiment was performed in triplicate, and the results are given as the mean of the three assays.

CCR1 (Homo sapiens) = target: T5, CCR1 (Homo sapiens); assay: Equilibrium competition receptor binding assay (SPA), [125I]-CCL5 on CHO/CCR1 membranes; settings: [125I]-CCL5 0.1 nM, CHO/CCR1 membranes, SPA; read-out: IC50 for the inhibition of CCL5 binding to CCR1
T5 construct: expressed in transfected cells; host or cells: CHO
Experimental: The assays were carried out on membranes from CHO transfectants expressing CCR1 or CCR5, as described previously (Severin et al., [2010]). Briefly, serial dilutions of the compounds were prepared in binding buffer (50 mM TrisHCl, pH 7.2, containing 1 mM CaCl2, 5 mM MgCl2, and 0.5% BSA). Equal volumes of membrane preparation at 80 μg/ml and scintillation proximity assay (SPA) beads were mixed before adding them to a 96 well filter plate, giving a final membrane concentration in the assay of 20 μg/ml. ^125I labeled chemokines were dissolved in binding buffer at a concentration of 0.4 nM. The assay was started by the addition of 25 μL [^125I]-CCL5 to give a concentration of 0.1 nM, in a final assay volume of 100 μL. The plates were incubated for 4 h. Radioactivity was counted with a beta counter for 1 min/well and the data analyzed using Graphpad Prism software. The radioligand was stored at −20°C and was used until the cpm of bound chemokine was ≥ 300 cpm.

CCR1 = target: T6, CCR1 (Homo sapiens, UniProt P32246); assay: Equilibrium competition receptor binding assay with CCL3 as the ligand, CCR1; settings: data not shown
T6 construct: expressed in transfected cells; host or cells: CHO
T6 sequence (P32246 1-355): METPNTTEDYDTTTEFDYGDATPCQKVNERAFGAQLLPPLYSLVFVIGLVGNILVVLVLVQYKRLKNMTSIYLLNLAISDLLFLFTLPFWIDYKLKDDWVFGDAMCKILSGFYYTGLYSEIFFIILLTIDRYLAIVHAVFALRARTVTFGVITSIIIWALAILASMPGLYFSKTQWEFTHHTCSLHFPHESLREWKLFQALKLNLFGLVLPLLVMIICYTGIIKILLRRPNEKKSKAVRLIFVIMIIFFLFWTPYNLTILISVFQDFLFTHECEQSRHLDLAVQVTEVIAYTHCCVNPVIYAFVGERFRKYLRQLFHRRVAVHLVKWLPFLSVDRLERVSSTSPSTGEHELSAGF
Experimental: as §1, §2

[4] = tested on: paw thickness after SRBC challenge; assay: Delayed-type hypersensitivity (DTH) model, SRBC; format: in vivo, BALB/c mice; settings: for inhibition of paw swelling: oligosaccharides 10 mg/kg s.c. at −30 min and +8 h, dexamethasone by oral gavage 30 min before challenge, paw thickness at 21 h
Experimental: Female BALB/c mice were immunized with 2 × 10^6 sheep red blood cells (SRBC) by subcutaneous route (s.c.) at the base of the tail. Five days later mice were challenged with an s.c. injection of 2 × 10^6 SRBC into the softpaw of the left hindpaw. The paw thickness was measured 21 h later and the difference calculated based on values obtained before challenge. MHxS, NisS, and StachS were injected s.c. at a dose of 10 mg/kg, 30 min before and 8 h after challenge. Vehicle was 0.02% BSA diluted in PBS. The reference compound, dexamethasone, was diluted in saline and administered by oral gavage 30 min before challenge. Group sizes were 6 for sham and 8 for all other groups.
Figure 5 Inhibition of delayed-type hypersensitivity. Immunization was performed by s.c. administration of SRBC, followed by a challenge in the hindpaw 5 days later. The persulfated oligosaccharides (10 mg/kg) were administered 30 min prior and 8 h after the challenge. Dexamethasone was used as a positive control, and paw thickness was measured 21 h following the challenge. The statistical differences vs. the control group (mice challenged with SRBC and treated with vehicle for the compounds 0.02% BSA diluted in PBS) are shown whenever present and indicated by ^*P <0.05>; ^***P < 0.001. TEXT PRINTED IN THE PICTURE: dexamethasone: 47% *** | MHxS: 39% *** | NisS: 20% * | StachS: 41% ***

[5] = tested on: citrated plasma from healthy human blood donors; assay: Anti-coagulation assay: Activated Partial Thromboplastin Time (APTT); settings: calibrated against heparin standard curve, samples at 1 mg/ml (MHxS 0.1 mg/ml)
Experimental: Activated Partial Thromboplastin Time (APTT) assays were performed by GlycoMar. 10 mg/ml stock solutions of NisS, StachS, and MHxS, were prepared using dH2O and stored at −20°C until use. Samples were tested at 1 mg/ml. All further dilutions were in dH2O. Prior to each assay, a calibration curve of heparin ranging from 0 to 10 IU/ml was prepared using 5th International Standard Heparin. (GlycoMar ID:92, batch 97/578, Expiry 21SEP10). Fresh human blood from healthy human blood donors was collected into S-Monovette Coagulation tubes from Sarstedt. Nine parts of freshly drawn venous blood were collected into one part trisodium citrate (0.106 M). Plasma was obtained by centrifugation at 1500 × g for 10 min. Each of the carbohydrate samples was diluted and tested at 1 mg/ml in the first instance. MHxS was subsequently tested at 0.1 mg/ml to be within the time frame of the standard curve. The APTT assay was run on an ACL 9000 Coagulation Analyzer. The coagulation time of HemosIL Normal Control (cat no. 0020003110) was checked. Samples, standards and controls were mixed 1:10 with citrated plasma in a test tube, loaded into the ACL 9000 carousel and analyzed using the extended APTT run program.

[6] = tested on: leukocyte recruitment into the synovial (knee) cavity; assay: Antigen-induced arthritis (AIA) model, mBSA; format: in vivo, mice; settings: 50 μg s.c. immediately after mBSA; cells counted at 24 h
Experimental: Induction of disease was performed by injection of 10 μg methylated bovine serum albumin (mBSA) as a 10 μL injection into the synovial cavity. Test compounds, at a total dose of 50 μg were injected in a total volume of 200 μL subcutaneously immediately after mBSA administration. Group sizes were 4–6 animals. Total leukocytes (A), neutrophils (B), and mononuclear cells (C) in the synovial cavity were enumerated 24 h after mBSA injection (Sachs et al., [2011]).
Figure 6 Inhibition of antigen induced arthritis. An injection of mBSA into the synovial cavity was used to induce disease. 50 μg of the inhibitors were administered s.c. immediately after the mBSA injection, and the cells in the synovial cavity were enumerated 24 h later. (A) Total cells; (B) […]; (C) mononuclear cells. ^*P < 0.05.

Kd (CCL5): 20 µM
effect on CCL5 binding to CCR5 (CCR5 [2]): no effect
competition of CCL3 binding to CCR5 (CCR5 [3]): no competition
IC50 (CCL5 binding to heparin): 320 µM
IC50 (CCR1 (Homo sapiens)): 6.7 µM
competition of CCL3 binding to CCR1 (CCR1): no competition
Compound: O=C(O)c1cc(S(=O)(=O)O)ccc1O [Molecule 1]
cell recruitment to the peritoneum [1]: inhibited cell recruitment to the peritoneum in a dose dependent manner
selective binding to CCL5 in the NMR screen (CCL5): confirmed to be selectively binding to CCL5

Kd (CCL5): 350 µM
Compound: O=C(O)c1ccccc1O [Molecule 4]

Kd (CCL5): > 500 µM
Compound: O=S(=O)(O)c1cc(O)ccc1O [Molecule 5]

Kd (CCL5): 500 µM
Compound: Nc1ccc(O)c(S(=O)(=O)O)c1 [Molecule 6]

Kd (CCL5): 35 µM
Compound: Nc1cc(C(=O)O)c(O)c(S(=O)(=O)O)c1 [Molecule 7]

Kd (CCL5): 20 µM
Compound: CC(=O)Nc1cc(C(=O)O)c(O)c(S(=O)(=O)O)c1 [Molecule 8]
selective binding to CCL5 in the NMR screen (CCL5): confirmed to be selectively binding to CCL5

Kd (CCL5): 300 µM
Compound: O=C(O)c1cc(NS(=O)(=O)c2ccc([N+](=O)[O-])cc2)cc(S(=O)(=O)O)c1O [Molecule 9]

Kd (CCL5): 18 µM
Compound: O=C(O)c1c(O)ccc(S(=O)(=O)O)c1O [Molecule 10]
selective binding to CCL5 in the NMR screen (CCL5): confirmed to be selectively binding to CCL5

Kd (CCL5): < 10 µM
Compound: O=C(O)c1cc(S(=O)(=O)O)c(O)cc1O [Molecule 11]

Kd (CCL5): 1 to 5 µM
Compound: O=C(O)c1c(O)c(S(=O)(=O)O)cc(S(=O)(=O)O)c1O [Molecule 12]

Kd (CCL5): 50 µM
Compound: O=S(=O)(O)c1ccccc1O [Molecule 13]

Kd (CCL5): < 1 µM
Compound: O=C(O)c1cc(S(=O)(=O)Nc2cc(C(=O)O)c(O)c(S(=O)(=O)O)c2)ccc1O [Molecule 14]

Kd (CCL5): 40 µM
Compound: CC(=O)Nc1ccc(S(=O)(=O)Nc2cc(C(=O)O)c(O)c(S(=O)(=O)O)c2)cc1 [Molecule 16]

Compound: C[C@@H]1C[C@H]2[C@@H]3CCC4=CC(=O)C=C[C@]4(C)[C@@]3(F)[C@@H](O)C[C@]2(C)[C@@]1(O)C(=O)CO [dexamethasone, reference compound]
inhibition of paw swelling [4]: 47%

IC50 (CCL5 binding to heparin): 5.89 ± 0.04 µM
Compound: persulfated Nis [NisS]
Anticoagulant activity (heparin-equivalent) [5]: 6.87 ± 3.22 IU/mg
inhibition of paw swelling [4]: 20%
mononuclear cell recruitment into the knee cavity [6]: statistically significant reduction
neutrophil recruitment into the knee cavity [6]: statistically significant reduction

IC50 (CCL5 binding to heparin): 18.6 ± 4.34 µM
Compound: persulfated Stach [StachS]
Anticoagulant activity (heparin-equivalent) [5]: 6.90 ± 2.69 IU/mg
reduction of paw thickness compared with dexamethasone ([4]; 10 mg/kg s.c. at −30 min and +8 h): comparable effect
inhibition of paw swelling [4]: 41%
